Assay results from BindingDB's records for doi:10.1074/jbc.273.36.23321 (Synaptic Pharmaceutical, 1998).
Residues, ends and D or L forms follow the SMILES beside them.

Assays:
Galanin receptor type 3 [1] = target: T1, Galanin receptor type 3 (Homo sapiens, UniProt O60755)
T1 sequence (O60755 whole entry): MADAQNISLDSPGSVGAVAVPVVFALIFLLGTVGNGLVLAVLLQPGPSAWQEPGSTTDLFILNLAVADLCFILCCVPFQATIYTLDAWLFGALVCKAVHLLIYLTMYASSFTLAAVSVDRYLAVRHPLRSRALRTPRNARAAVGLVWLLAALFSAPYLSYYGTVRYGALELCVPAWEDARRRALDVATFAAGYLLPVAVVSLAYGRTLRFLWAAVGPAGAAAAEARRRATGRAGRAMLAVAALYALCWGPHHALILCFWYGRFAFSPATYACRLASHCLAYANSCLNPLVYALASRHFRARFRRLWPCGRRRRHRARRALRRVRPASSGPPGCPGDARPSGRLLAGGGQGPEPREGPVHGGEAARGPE

Galanin receptor type 3 [2] = target: T2, Galanin receptor type 3 (Rattus norvegicus, UniProt O88626)
T2 sequence (O88626 whole entry): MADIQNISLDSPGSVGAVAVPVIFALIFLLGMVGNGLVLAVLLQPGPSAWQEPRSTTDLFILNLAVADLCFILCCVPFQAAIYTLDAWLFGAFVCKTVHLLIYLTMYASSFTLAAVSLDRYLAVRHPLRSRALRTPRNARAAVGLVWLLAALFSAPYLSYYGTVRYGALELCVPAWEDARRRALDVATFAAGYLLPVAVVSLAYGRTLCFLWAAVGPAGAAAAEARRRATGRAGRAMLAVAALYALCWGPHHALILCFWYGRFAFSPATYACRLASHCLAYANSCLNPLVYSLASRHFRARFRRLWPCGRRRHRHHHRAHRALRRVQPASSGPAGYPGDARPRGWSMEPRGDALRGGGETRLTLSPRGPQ

Galanin receptor type 2 = target: T3, Galanin receptor type 2 (Rattus norvegicus, UniProt O08726)
T3 sequence (O08726 whole entry): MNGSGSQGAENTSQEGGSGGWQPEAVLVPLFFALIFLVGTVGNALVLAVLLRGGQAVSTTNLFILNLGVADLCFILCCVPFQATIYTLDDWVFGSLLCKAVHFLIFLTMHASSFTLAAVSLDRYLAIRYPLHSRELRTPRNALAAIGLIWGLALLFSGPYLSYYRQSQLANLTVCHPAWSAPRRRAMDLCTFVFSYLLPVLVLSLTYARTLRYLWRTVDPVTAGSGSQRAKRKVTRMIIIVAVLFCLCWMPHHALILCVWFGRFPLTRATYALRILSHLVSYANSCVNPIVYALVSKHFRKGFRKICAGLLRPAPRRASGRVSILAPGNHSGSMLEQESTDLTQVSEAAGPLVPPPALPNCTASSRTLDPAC

Compound	Ki (Galanin receptor type 3 [1]) [nM]	Ki (Galanin receptor type 3 [2]) [nM]	Ki (Galanin receptor type 2) [nM]
CC(C)C[C@H](NC(=O)[C@H](CC(C)C)NC(=O)[C@H](Cc1ccc(O)cc1)NC(=O)CNC(=O)[C@H](C)NC(=O)[C@H](CO)NC(=O)[C@H](CC(N)=O)NC(=O)[C@H](CC(C)C)NC(=O)[C@@H](NC(=O)[C@H](Cc1c[nH]c2ccccc12)NC(=O)CN)[C@@H](C)O)C(=O)NCC(=O)N1CCC[C@H]1C(=O)N1CCC[C@H]1C(=O)N1CCC[C@H]1C(=O)NCC(=O)N[C@@H](Cc1ccccc1)C(=O)N[C@@H](CO)C(=O)N1CCC[C@H]1C(=O)N[C@@H](Cc1ccccc1)C(=O)N[C@@H](CCCN=C(N)N)C(N)=O	14.4	2.09	–
COc1ccccc1N(CCOc1ccc(C)cc1)C(=O)CN1CCCCC1 [CAS_3043476]	39.8	10.5	1
CC(C)C[C@H](NC(=O)[C@H](CC(C)C)NC(=O)[C@@H](Cc1c[nH]c2ccccc12)NC(=O)[C@H](Cc1ccccc1)NC(=O)[C@@H](Cc1c[nH]c2ccccc12)NC(=O)[C@H](CCC(N)=O)NC(=O)[C@H](CCC(N)=O)NC(=O)[C@@H]1CCCN1C(=O)[C@H](CCCCN)NC(=O)[C@@H]1CCCN1C(=O)[C@@H](CCCN=C(N)N)NC(=O)[C@@H]1CCCN1C(=O)CNC(=O)[C@H](CC(C)C)NC(=O)[C@H](CC(C)C)NC(=O)[C@H](Cc1ccc(O)cc1)NC(=O)CNC(=O)[C@H](C)NC(=O)[C@H](CO)NC(=O)[C@H](CC(N)=O)NC(=O)[C@H](CC(C)C)NC(=O)[C@@H](NC(=O)[C@H](Cc1c[nH]c2ccccc12)NC(=O)CN)[C@@H](C)O)C(N)=O [Gal(1-13)-Std I] (HELM PEPTIDE1{G.W.T.L.N.S.A.G.Y.L.L.G.P.[dR].P.K.P.Q.Q.[dW].F.[dW].L.L.[am]}$$$$V2.0)	8.13	–	0.56
CC(C)C[C@H](NC(=O)[C@H](CC(C)C)NC(=O)[C@@H](Cc1c[nH]c2ccccc12)NC(=O)[C@H](Cc1ccccc1)NC(=O)[C@@H](Cc1c[nH]c2ccccc12)NC(=O)[C@H](CCC(N)=O)NC(=O)[C@H](CCC(N)=O)NC(=O)[C@@H]1CCCN1C(=O)[C@H](CCCCN)NC(=O)[C@@H]1CCCN1C(=O)[C@@H](CCCNC(=N)N)NC(=O)[C@@H]1CCCN1C(=O)CNC(=O)[C@H](CC(C)C)NC(=O)[C@H](CC(C)C)NC(=O)[C@H](Cc1ccc(O)cc1)NC(=O)CNC(=O)[C@H](C)NC(=O)[C@H](CO)NC(=O)[C@H](CC(N)=O)NC(=O)[C@H](CC(C)C)NC(=O)[C@@H](NC(=O)[C@H](Cc1c[nH]c2ccccc12)NC(=O)CN)[C@@H](C)O)C(N)=O [Gal(1-13)-Std I] (HELM PEPTIDE1{G.W.T.L.N.S.A.G.Y.L.L.G.P.[dR].P.K.P.Q.Q.[dW].F.[dW].L.L.[am]}$$$$V2.0)	–	4.47	–
CC[C@H](C)[C@H](NC(=O)[C@H](C)NC(=O)[C@H](Cc1c[nH]cn1)NC(=O)[C@@H]1CCCN1C(=O)CNC(=O)[C@H](CC(C)C)NC(=O)[C@H](CC(C)C)NC(=O)[C@H](Cc1ccc(O)cc1)NC(=O)CNC(=O)[C@H](C)NC(=O)[C@H](CO)NC(=O)[C@H](CC(N)=O)NC(=O)[C@H](CC(C)C)NC(=O)[C@@H](N)[C@@H](C)O)C(=O)N[C@@H](CC(=O)O)C(=O)N[C@@H](CC(N)=O)C(=O)N[C@@H](Cc1c[nH]cn1)C(=O)N[C@@H](CCCNC(=N)N)C(=O)N[C@@H](CO)C(=O)N[C@@H](Cc1ccccc1)C(=O)N[C@@H](Cc1c[nH]cn1)C(=O)N[C@@H](CC(=O)O)C(=O)N[C@@H](CCCCN)C(=O)N[C@@H](Cc1ccc(O)cc1)C(=O)NCC(=O)N[C@@H](CC(C)C)C(=O)N[C@@H](C)C(N)=O [Galanin (3-29), porcine]	1000	–	–
CC[C@H](C)[C@H](NC(=O)[C@H](C)NC(=O)[C@H](Cc1cnc[nH]1)NC(=O)[C@@H]1CCCN1C(=O)CNC(=O)[C@H](CC(C)C)NC(=O)[C@H](CC(C)C)NC(=O)[C@H](Cc1ccc(O)cc1)NC(=O)CNC(=O)[C@H](C)NC(=O)[C@H](CO)NC(=O)[C@H](CC(N)=O)NC(=O)[C@H](CC(C)C)NC(=O)[C@@H](NC(=O)[C@H](Cc1c[nH]c2ccccc12)NC(=O)CN)[C@@H](C)O)C(=O)N[C@@H](CC(=O)O)C(=O)N[C@@H](CC(N)=O)C(=O)N[C@@H](Cc1cnc[nH]1)C(N)=O [Galanin rat]	12.3	3.31	1.35

More lines, now with the values ahead:

Ki (Galanin receptor type 3 [1]) [nM]	Ki (Galanin receptor type 3 [2]) [nM]	Ki (Galanin receptor type 2) [nM]	Compound
–	1.23	–	CC[C@H](C)[C@H](NC(=O)[C@H](Cc1ccc(O)cc1)NC(=O)[C@H](Cc1c[nH]cn1)NC(=O)[C@H](CCCNC(=N)N)NC(=O)[C@@H]1CCCN1C(=O)CNC(=O)[C@H](CC(C)C)NC(=O)[C@H](CC(C)C)NC(=O)[C@H](Cc1ccc(O)cc1)NC(=O)CNC(=O)[C@H](C)NC(=O)[C@H](CO)NC(=O)[C@H](CC(N)=O)NC(=O)[C@H](CC(C)C)NC(=O)[C@@H](NC(=O)[C@H](Cc1c[nH]c2ccccc12)NC(=O)CN)[C@@H](C)O)C(=O)N[C@@H](CC(N)=O)C(=O)N[C@@H](CC(C)C)C(=O)N[C@H](C(=O)N[C@H](C(=O)N[C@@H](CCCNC(=N)N)C(=O)N[C@@H](CCC(N)=O)C(=O)N[C@@H](CCCNC(=N)N)C(=O)N[C@@H](Cc1ccc(O)cc1)C(N)=O)[C@@H](C)O)[C@@H](C)CC [M32]
288	79.4	3.55	H-GWTLNSAGYLLGPPPALALA-NH2 [M40]
